For 23 compounds, IC50 results are on record in patent publication US11155544B2, “Heterocycle comprising tyrosine kinase inhibitors” (Principia Biopharma Inc., priority 2015, dated 2021).

The target in the assay is human recombinant BTK (Homo sapiens (Human), UniProt Q06187). The experiment in a line: BTK Enzymatic Activity Assay (Caliper-based kinase assay). Format: biochemical. Particulars: human recombinant BTK (0.5 nM), ATP (16 μM), peptide substrate (1 μM), room temperature for 3 h. On the procedure: A Caliper-based kinase assay (Caliper Life Sciences, Hopkinton, Mass.) was used to measure inhibition of BTK kinase activity of a compound of the present disclosure. Serial dilutions of test compounds were incubated with human recombinant BTK (0.5 nM), ATP (16 μM) and a phosphoacceptor peptide substrate FAM-GEEPLYWSFPAKKK-NH2 (1 μM) at room temperature for 3 h. The reaction was then terminated with EDTA, final concentration 20 mM and the phosphorylated reaction product was quantified on a Caliper Desktop Profiler (Caliper LabChip 3000). Percent inhibition was calculated for each compound dilution and the concentration that produced 50% inhibition was calculated. This value is presented as the IC50.

As usually defined, the IC50 is the concentration that inhibits the measured activity by half.

Sequence of human recombinant BTK (Q06187 whole entry): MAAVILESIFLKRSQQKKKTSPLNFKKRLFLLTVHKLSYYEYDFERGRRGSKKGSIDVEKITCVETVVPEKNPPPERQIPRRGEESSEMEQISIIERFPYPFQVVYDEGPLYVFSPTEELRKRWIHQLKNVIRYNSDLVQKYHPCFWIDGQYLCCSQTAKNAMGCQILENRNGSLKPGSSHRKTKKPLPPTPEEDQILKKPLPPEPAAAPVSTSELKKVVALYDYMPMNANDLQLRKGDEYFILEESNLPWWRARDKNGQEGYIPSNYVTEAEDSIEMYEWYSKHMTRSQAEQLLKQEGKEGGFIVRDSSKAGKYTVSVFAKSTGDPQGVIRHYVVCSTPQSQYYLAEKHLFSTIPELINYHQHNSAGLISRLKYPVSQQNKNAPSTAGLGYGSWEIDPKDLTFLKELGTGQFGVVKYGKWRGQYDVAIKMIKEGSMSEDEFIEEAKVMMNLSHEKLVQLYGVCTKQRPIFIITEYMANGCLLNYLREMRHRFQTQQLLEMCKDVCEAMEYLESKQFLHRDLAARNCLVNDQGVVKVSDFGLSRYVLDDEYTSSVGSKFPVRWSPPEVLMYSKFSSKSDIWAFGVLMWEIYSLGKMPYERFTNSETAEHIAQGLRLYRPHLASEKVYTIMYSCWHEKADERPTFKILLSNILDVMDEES

On to `CC(C)(C=C(C#N)C(=O)N1CCC[C@@H](c2nc(-c3ccc(Oc4ccccc4)cc3F)c3c(N)nccn23)C1)N1CCN(C2COC2)CC1` [Compound 2, (R)-2-(3-(8-amino-1-(2-fluoro-4-phenoxyphenyl)imidazo[1,5-a]pyrazin-3-yl)piperidine-1-carbonyl)-4-methyl-4-(4-(oxetan-3-yl)piperazin-1-yl)pent-2-enenitrile], for which the IC50 was determined as 1.9 nM.
Under `CC(C)(C=C(C#N)C(=O)N1CCC[C@H]1Cn1nc(-c2ccc(C(=O)Nc3ccccn3)cc2)c2c(N)nccc21)N1CCN(C2COC2)CC1` [Compound 15, (S)-4-(4-amino-1-((1-(2-cyano-4-methyl-4-(4-(oxetan-3-yl)piperazin-1-yl)pent-2-enoyl)pyrrolidin-2-yl)methyl)-1H-pyrazolo[4,3-c]pyridin-3-yl)-N-(pyridin-2-yl)benzamide] stands 22.4 nM; under `CN1CCN(C(C)(C)C=C(C#N)C(=O)N2CCC[C@H]2Cn2nc(-c3ccc(C(=O)Nc4ccccn4)cc3)c3c(N)nccc32)CC1` [Compound 20, (S)-4-(4-amino-1-((1-(2-cyano-4-methyl-4-(4-methylpiperazin-1-yl)pent-2-enoyl)pyrrolidin-2-yl)methyl)-1H-pyrazolo[4,3-c]pyridin-3-yl)-N-(pyridin-2-yl)benzamide], 19.1 nM.
For `CC(C)(C=C(C#N)C(=O)N1CCC[C@H]1Cn1nc(-c2ccc(C(=O)Nc3ccccn3)cc2)c2c(N)nccc21)N1CCOCC1` [Compound 21, (S)-4-(4-amino-1-((1-(2-cyano-4-methyl-4-morpholinopent-2-enoyl)pyrrolidin-2-yl)methyl)-1H-pyrazolo[4,3-c]pyridin-3-yl)-N-(pyridin-2-yl)benzamide], the IC50 worked out at 18.6 nM.
On to `CC(C)(C=C(C#N)C(=O)N1CCC[C@@H](n2nc(-c3ccc(Oc4c(F)cccc4F)cc3)c3c(N)nccc32)C1)N1CCN(C2COC2)CC1` [Compound 28, (R)-2-(3-(4-amino-3-(4-(2,6-difluorophenoxy)phenyl)-1H-pyrazolo[4,3-c]pyridin-1-yl)piperidine-1-carbonyl)-4-methyl-4-(4-(oxetan-3-yl)piperazin-1-yl)pent-2-enenitrile], for which the IC50 came to 0.9 nM.
As for `CC(C)(C=C(C#N)C(=O)N1CCC[C@@H](n2nc(-c3ccc(Oc4cccc(F)c4F)cc3)c3c(N)nccc32)C1)N1CCN(C2COC2)CC1` [Compound 29, (R)-2-(3-(4-amino-3-(4-(2,3-difluorophenoxy)phenyl)-1H-pyrazolo[4,3-c]pyridin-1-yl)piperidine-1-carbonyl)-4-methyl-4-(4-(oxetan-3-yl)piperazin-1-yl)pent-2-enenitrile], the figure is 0.8 nM; as for `CCN1CCN(C(C)(C)C=C(C#N)C(=O)N2CCC[C@H]2Cn2nc(-c3ccc(Oc4ccccc4)cc3F)c3c(N)nccc32)CC1=O` [Compound 31, (S)-2-(2-((4-amino-3-(2-fluoro-4-phenoxyphenyl)-1H-pyrazolo[4,3-c]pyridin-1-yl)methyl)pyrrolidine-1-carbonyl)-4-(4-ethyl-3-oxopiperazin-1-yl)-4-methylpent-2-enenitrile], 11.5 nM.
`CN1CCN(C(C)(C)C=C(C#N)C(=O)N2CCC[C@H]2Cn2nc(-c3ccc(Oc4ccccc4)cc3F)c3c(N)nccc32)CC1=O` [Compound 32, (S)-2-(2-((4-amino-3-(2-fluoro-4-phenoxyphenyl)-1H-pyrazolo[4,3-c]pyridin-1-yl)methyl)pyrrolidine-1-carbonyl)-4-methyl-4-(4-methyl-3-oxopiperazin-1-yl)pent-2-enenitrile]: the IC50 is 8.9 nM.
As for `CC(C)(C=C(C#N)C(=O)N1CCC[C@@H](n2nc(-c3ccc(Oc4ccccc4)cc3)c3c(N)nccc32)C1)N1CCN(C2COC2)CC1` [Compound 34, (R)-2-(3-(4-amino-3-(4-phenoxyphenyl)-1H-pyrazolo[4,3-c]pyridin-1-yl)piperidine-1-carbonyl)-4-methyl-4-(4-(oxetan-3-yl)piperazin-1-yl)pent-2-enenitrile], the figure is 1.9 nM; as for `CC(C)(C=C(C#N)C(=O)N1CCC[C@@H](c2nc(-c3ccc(Oc4ccccc4)cc3)c3c(N)nccn23)C1)N1CCN(C2COC2)CC1` [Compound 35, (R)-2-(3-(8-amino-1-(4-phenoxyphenyl)imidazo[1,5-a]pyrazin-3-yl)piperidine-1-carbonyl)-4-methyl-4-(4-(oxetan-3-yl)piperazin-1-yl)pent-2-enenitrile], 2.1 nM; as for `CC(C)(C=C(C#N)C(=O)N1CCC[C@@H](n2nc(-c3ccc(Oc4ccccc4)cc3)c3c(N)nccc32)C1)N1CCN(C2(C)COC2)CC1` [Compound 39, (R)-2-(3-(4-amino-3-(4-phenoxyphenyl)-1H-pyrazolo[4,3-c]pyridin-1-yl)piperidine-1-carbonyl)-4-methyl-4-(4-(3-methyloxetan-3-yl)piperazin-1-yl)pent-2-enenitrile], 1.3 nM.
As for `CCN1CCN(C(C)(C)C=C(C#N)C(=O)N2CCC[C@@H](n3nc(-c4ccc(Oc5ccccc5)cc4F)c4c(N)nccc43)C2)CC1=O` [Compound 40, (R)-2-(3-(4-amino-3-(2-fluoro-4-phenoxyphenyl)-1H-pyrazolo[4,3-c]pyridin-1-yl)piperidine-1-carbonyl)-4-methyl-4-(4-ethyl-3-oxopiperazin-1-yl)pent-2-enenitrile], the IC50 was determined as 2.4 nM.
Turning to `CCN1CCN(C(C)(C)C=C(C#N)C(=O)N2CCC[C@@H](n3nc(-c4ccc(Oc5ccccc5)cc4)c4c(N)nccc43)C2)CC1=O` [Compound 41, (R)-2-(3-(4-amino-3-(4-phenoxyphenyl)-1H-pyrazolo[4,3-c]pyridin-1-yl)piperidine-1-carbonyl)-4-(4-ethyl-3-oxopiperazin-1-yl)-4-methylpent-2-enenitrile], the IC50 is 2.4 nM.
On to `CC1(C=C(C#N)C(=O)N2CCC[C@@H](n3nc(-c4ccc(Oc5ccccc5)cc4)c4c(N)nccc43)C2)CCN(C2COC2)CC1` [Compound 42, (R)-2-(3-(4-amino-3-(4-phenoxyphenyl)-1H-pyrazolo[4,3-c]pyridin-1-yl)piperidine-1-carbonyl)-3-(4-methyl-1-(oxetan-3-yl)piperidin-4-yl)acrylonitrile], for which the half-inhibitory concentration (IC50) is 2.6 nM.
As for `CC1(C=C(C#N)C(=O)N2CCC[C@@H](n3nc(-c4ccc(Oc5ccccc5)cc4)c4c(N)nccc43)C2)CCOCC1` [Compound 43, (R)-2-(3-(4-amino-3-(4-phenoxyphenyl)-1H-pyrazolo[4,3-c]pyridin-1-yl)piperidine-1-carbonyl)-3-(4-methyltetrahydro-2H-pyran-4-yl)acrylonitrile], the figure is 2 nM; as for `CN1CCN(C(C)(C)C=C(C#N)C(=O)N2CCC[C@@H](n3nc(-c4ccc(C(=O)Nc5ccccn5)cc4)c4c(N)nccc43)C2)CC1` [Compound 45, (R)-4-(4-amino-1-(1-(2-cyano-4-methyl-4-(4-methylpiperazin-1-yl)pent-2-enoyl)piperidin-3-yl)-1H-pyrazolo[4,3-c]pyridin-3-yl)-N-(pyridin-2-yl)benzamide], 4.6 nM; as for `CN(C1COC1)C(C)(C)C=C(C#N)C(=O)N1CCC[C@@H](n2nc(-c3ccc(C(=O)Nc4ccccn4)cc3)c3c(N)nccc32)C1` [Compound 46, (R)-4-(4-amino-1-(1-(2-cyano-4-methyl-4-(methyl(oxetan-3-yl)amino)pent-2-enoyl)piperidin-3-yl)-1H-pyrazolo[4,3-c]pyridin-3-yl)-N-(pyridin-2-yl)benzamide], 2.1 nM.
For `CC(C)(C=C(C#N)C(=O)N1CCC[C@@H](n2nc(-c3ccc(C(=O)Nc4ccccn4)cc3)c3c(N)nccc32)C1)N1CCN(C2COC2)CC1` [Compound 47, (R)-4-(4-amino-1-(1-(2-cyano-4-methyl-4-(4-(oxetan-3-yl)piperazin-1-yl)pent-2-enoyl)piperidin-3-yl)-1H-pyrazolo[4,3-c]pyridin-3-yl)-N-(pyridin-2-yl)benzamide], the IC50 was 4.1 nM.
On to `CC1(C=C(C#N)C(=O)N2CCC[C@@H](n3nc(-c4ccc(Oc5ccccc5)cc4F)c4c(N)nccc43)C2)CCOCC1` [Compound 48, (R)-2-(3-(4-amino-3-(2-fluoro-4-phenoxyphenyl)-1H-pyrazolo[4,3-c]pyridin-1-yl)piperidine-1-carbonyl)-3-(4-methyltetrahydro-2H-pyran-4-yl)acrylonitrile], for which the IC50 was 3.1 nM.
Under `CC1(C=C(C#N)C(=O)N2CCC[C@@H](n3nc(-c4ccc(Oc5ccccc5)cc4F)c4c(N)nccc43)C2)CCN(C2COC2)CC1` [Compound 49, (R)-2-(3-(4-amino-3-(2-fluoro-4-phenoxyphenyl)-1H-pyrazolo[4,3-c]pyridin-1-yl)piperidine-1-carbonyl)-3-(4-methyl-1-(oxetan-3-yl)piperidin-4-yl)acrylonitrile] stands 1.8 nM; under `CC(C)(C=C(C#N)C(=O)N1CCC[C@@H](n2nc(-c3ccc(C(=O)Nc4cc(F)ccn4)cc3)c3c(N)nccc32)C1)N1CCN(C2COC2)CC1` [Compound 50, (R)-4-(4-amino-1-(1-(2-cyano-4-methyl-4-(4-(oxetan-3-yl)piperazin-1-yl)pent-2-enoyl)piperidin-3-yl)-1H-pyrazolo[4,3-c]pyridin-3-yl)-N-(4-fluoropyridin-2-yl)benzamide], 4.2 nM.
As for `CN1CCN(C(C)(C)C=C(C#N)C(=O)N2CCC[C@@H](c3nc(-c4ccc(Oc5ccccc5)cc4)c4c(N)nccn34)C2)CC1=O` [Compound 52, (R)-2-(3-(8-amino-1-(4-phenoxyphenyl)imidazo[1,5-a]pyrazin-3-yl)piperidine-1-carbonyl)-4-methyl-4-(4-methyl-3-oxopiperazin-1-yl)pent-2-enenitrile], the figure is 1.8 nM; as for `CC1(C=C(C#N)C(=O)N2CCC[C@@H](c3nc(-c4ccc(Oc5ccccc5)cc4F)c4c(N)nccn34)C2)CCOCC1` [Compound 53, (R)-2-(3-(8-amino-1-(2-fluoro-4-phenoxyphenyl)imidazo[1,5-a]pyrazin-3-yl)piperidine-1-carbonyl)-3-(4-methyltetrahydro-2H-pyran-4-yl)acrylonitrile], 2 nM.
